Data as given in ChEMBL document CHEMBL1201862, “PubChem BioAssay data set” (2004).
The source made the active and inactive calls.

What was measured:
[1] = system: H9c2; test: cells; assay type: functional, cell-based; details: Rattus norvegicus, H9c2, Myocardium;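 also: confirmatory concentration-response retest of ultra-high-throughput screening hits for modulation of myocardial damage; cell death induced by hydrogen peroxide oxidative stress; compound pretreatment for 60 min then peroxide exposure for 2 h; potency is for protecting the cells against peroxide damage rather than for killing them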
[2] = target: Induced myeloid leukemia cell differentiation protein Mcl-1 (Homo sapiens, UniProt Q07820); assay type: functional
[3] = viability of PTEN-deleted HCT116 cells – cell-based, HCT116 PTEN knockout, dose response (AID 1047); assay type: functional;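 also: HCT116 colon tumor cells with PTEN knocked out; cells exposed to compound for 60 hours before readout; potency for loss of cell viability measured by luminescence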
[4] = viability of HCT116 lacking mutant beta-catenin – cell-based, human colon tumor, dose response (AID 1045); assay type: functional;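 also: HCT116 colon tumor cells with beta catenin knocked out; cells exposed to compound for 60 hours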
[5] = HEK-293T viability loss after treatment – luminescence, T-cell screen hits, cytotoxicity control for TCR NF-kB inhibitor project, dose response (AID 489026); assay type: functional, cell-based;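 also: cells exposed to compound about 14 hours before the viability readout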
[6] = system: INS1; test: INS-1E survival protection against cytokine death – cell-based, luminescence, retest, dose response (AID 449756); assay type: functional; details: Rattus norvegicus;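 also: cell death triggered by IL-1 beta plus TNF-alpha plus IFN-gamma mixture; protective hits raise ATP signal compared with cytokine alone wells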
[7] = reduction of Shn3 3'UTR-driven luciferase in osteoblasts – cell-based, Clone20 osteoblasts, firefly luciferase, cherry-picked, dose response (AID 624132); assay type: functional;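 also: firefly luciferase luminescence from reporter carrying the Shn3 3'UTR in osteoblasts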
[8] = loss of viability in HepG2 cells – cell-based, CellTiter-Glo, cherry-picked, cytotoxicity control for Shn3 inhibitor project, dose response (AID 624134); assay type: functional
[9] = target: T1, Calpain-2 catalytic subunit (Sus scrofa, UniProt P43367); test: m-calpain protease blockers, concentration series – biochemical, fluorogenic peptide substrate, dose response (AID 1420); assay type: functional
T1 sequence (P43367 whole entry): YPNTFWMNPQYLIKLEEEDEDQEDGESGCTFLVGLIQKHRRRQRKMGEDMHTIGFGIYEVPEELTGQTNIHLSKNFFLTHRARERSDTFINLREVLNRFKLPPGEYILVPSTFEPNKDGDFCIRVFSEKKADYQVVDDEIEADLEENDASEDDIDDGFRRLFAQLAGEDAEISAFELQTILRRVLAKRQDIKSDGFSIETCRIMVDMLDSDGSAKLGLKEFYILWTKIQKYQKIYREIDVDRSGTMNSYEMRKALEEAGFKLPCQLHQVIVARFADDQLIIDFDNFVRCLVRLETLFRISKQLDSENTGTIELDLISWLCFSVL

[10] = target: Heat shock protein HSP 90-alpha (Homo sapiens, UniProt P07900); assay type: functional, organism-based
[11] = cells; assay type: functional, cell-based
[12] = cells; assay type: functional, cell-based; remark: listed apart in the source
[13] = target: T2, Polyadenylate-binding protein 1 (Homo sapiens, UniProt P11940); test: MLLE binding blockers, Cy5 peptide tracer – biochemical, fluorescence polarization, Cy5-PAM2 peptide, secondary, miRNA deadenylation inhibitor project, dose response (AID 602260); assay type: functional; details: read-out: IC50_Mean
[14] = target: T2, Polyadenylate-binding protein 1; test: MLLE domain peptide-binding blockers, IC50 – biochemical, fluorescence polarization, FITC-PAM2 peptide, dose response (AID 602259); assay type: functional; details: read-out: IC50_Mean
[15] = target: T3, Replicative DNA helicase DnaB (Mycobacterium tuberculosis, UniProt P9WMR3); test: DnaB intein splicing inhibitors, dose response, biochemical, cell-free fluorescence (AID 449749); assay type: functional
T3 sequence (P9WMR3 whole entry): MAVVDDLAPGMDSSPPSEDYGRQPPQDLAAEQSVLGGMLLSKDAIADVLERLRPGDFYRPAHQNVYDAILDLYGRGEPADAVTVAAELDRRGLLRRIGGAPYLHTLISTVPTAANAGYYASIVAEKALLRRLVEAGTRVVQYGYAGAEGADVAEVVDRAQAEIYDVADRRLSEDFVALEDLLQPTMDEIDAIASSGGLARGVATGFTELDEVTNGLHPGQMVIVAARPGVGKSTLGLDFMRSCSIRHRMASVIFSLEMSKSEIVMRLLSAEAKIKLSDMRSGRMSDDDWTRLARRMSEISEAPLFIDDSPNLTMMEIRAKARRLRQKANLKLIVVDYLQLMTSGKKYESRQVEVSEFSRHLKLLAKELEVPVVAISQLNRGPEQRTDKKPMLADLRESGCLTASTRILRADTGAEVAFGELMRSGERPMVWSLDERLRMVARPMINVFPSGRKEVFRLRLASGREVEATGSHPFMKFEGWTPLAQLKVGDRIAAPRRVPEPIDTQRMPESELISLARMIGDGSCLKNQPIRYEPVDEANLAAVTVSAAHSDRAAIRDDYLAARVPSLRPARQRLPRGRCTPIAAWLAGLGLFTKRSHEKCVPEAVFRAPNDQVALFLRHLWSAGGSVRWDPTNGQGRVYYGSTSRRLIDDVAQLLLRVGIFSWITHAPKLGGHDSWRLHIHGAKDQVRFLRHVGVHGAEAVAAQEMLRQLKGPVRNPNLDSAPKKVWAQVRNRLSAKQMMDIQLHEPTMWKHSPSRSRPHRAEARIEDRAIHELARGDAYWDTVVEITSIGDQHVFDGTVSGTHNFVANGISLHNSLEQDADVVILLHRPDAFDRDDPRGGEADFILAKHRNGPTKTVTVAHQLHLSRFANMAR

[16] = target: T4, Protein RecA (Mycobacterium tuberculosis, UniProt P9WHJ3); test: Fluorescence Cell-Free Homogeneous Dose Retest to Identify Inhibitors of RecA-Intein Splicing Activity. [Related pubchem assays (depositor defined):AID2097, AID2223, AID489010, AID492950]; assay type: functional
T4 sequence (P9WHJ3 whole entry): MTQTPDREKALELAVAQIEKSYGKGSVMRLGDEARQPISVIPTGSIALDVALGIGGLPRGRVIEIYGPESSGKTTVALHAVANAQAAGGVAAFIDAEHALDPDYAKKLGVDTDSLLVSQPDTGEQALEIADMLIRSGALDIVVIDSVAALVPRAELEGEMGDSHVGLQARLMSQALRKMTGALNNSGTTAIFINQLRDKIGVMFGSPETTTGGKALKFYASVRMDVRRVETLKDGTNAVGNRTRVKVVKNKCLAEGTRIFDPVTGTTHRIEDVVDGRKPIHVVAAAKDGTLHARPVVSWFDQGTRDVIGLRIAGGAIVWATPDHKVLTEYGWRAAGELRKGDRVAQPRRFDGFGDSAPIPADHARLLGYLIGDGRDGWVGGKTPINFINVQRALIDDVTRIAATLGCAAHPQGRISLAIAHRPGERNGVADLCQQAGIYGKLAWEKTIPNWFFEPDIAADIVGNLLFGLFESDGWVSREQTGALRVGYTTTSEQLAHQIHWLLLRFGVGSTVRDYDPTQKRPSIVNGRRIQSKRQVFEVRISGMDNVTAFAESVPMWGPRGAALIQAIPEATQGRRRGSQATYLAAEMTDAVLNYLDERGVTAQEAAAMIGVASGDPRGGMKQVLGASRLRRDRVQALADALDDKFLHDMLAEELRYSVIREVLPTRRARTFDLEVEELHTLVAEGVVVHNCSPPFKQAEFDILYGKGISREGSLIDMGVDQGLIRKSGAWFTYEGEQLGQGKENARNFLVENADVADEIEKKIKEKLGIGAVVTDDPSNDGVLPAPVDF

[17] = target: Genome polyprotein (dengue virus type 2, UniProt P29990); test: flavivirus cap methylation enzyme inhibition – biochemical, confirmation dose response, primary screen (AID 588689); assay type: functional
[18] = system: BJ; test: BJ-TERT fibroblast viability loss – cell-based, RAS-independent, luminescence, dose response (AID 1933); assay type: functional; details: Homo sapiens
[19] = system: BJ; test: cells; assay type: functional, cell-based; details: Homo sapiens
[20] = system: BJ; test: BJ-TERT-LT-ST fibroblast viability loss – cell-based, RAS-independent, luminescence, dose response (AID 1935); assay type: functional; details: Homo sapiens;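 also: BJ fibroblasts immortalized with TERT plus LT and ST oncogenes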
[21] = DRD fibroblast viability loss – cell-based, non-viral oncogenic, luminescence, dose response (AID 1934); assay type: functional; details: Homo sapiens
[22] = P. falciparum Dd2 growth inhibitors, dose response, SYBR Green, cherry-picked samples (AID 1159567); assay type: functional, cell-based
[23] = Luminescence Cell-Based Dose Retest to Confirm Inhibitors of Cancer Stem Cells. [Related pubchem assays (depositor defined):AID2717, AID2721]; assay type: functional; details: Homo sapiens
[24] = system: Vero; test: cells; assay type: functional; details: Chlorocebus sabaeus
[25] = target: Paired box protein Pax-8 (Homo sapiens, UniProt Q06710); test: PAX8 transcriptional activity inhibition in RMG-I – RMG-I cells, luciferase, cherry-pick, dose response (AID 687027); assay type: functional, cell-based;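 also: luciferase reporter driven by Pax8 target thyroperoxidase promoter measured by SteadyGlo luminescence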
Paired box protein Pax-8, sequence (Q06710 whole entry): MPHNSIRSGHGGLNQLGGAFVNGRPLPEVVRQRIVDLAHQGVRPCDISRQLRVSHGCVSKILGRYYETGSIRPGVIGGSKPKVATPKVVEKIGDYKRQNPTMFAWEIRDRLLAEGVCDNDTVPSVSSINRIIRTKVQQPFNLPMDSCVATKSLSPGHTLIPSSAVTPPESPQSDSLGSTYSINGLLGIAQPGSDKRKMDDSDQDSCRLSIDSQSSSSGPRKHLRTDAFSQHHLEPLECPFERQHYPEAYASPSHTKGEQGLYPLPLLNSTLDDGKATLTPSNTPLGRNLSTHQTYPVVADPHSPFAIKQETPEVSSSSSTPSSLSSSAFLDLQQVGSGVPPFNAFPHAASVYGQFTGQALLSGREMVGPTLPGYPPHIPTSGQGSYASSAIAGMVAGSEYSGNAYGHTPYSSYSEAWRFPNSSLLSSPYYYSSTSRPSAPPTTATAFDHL

T2 sequence (P11940 whole entry, the tested form may be a part): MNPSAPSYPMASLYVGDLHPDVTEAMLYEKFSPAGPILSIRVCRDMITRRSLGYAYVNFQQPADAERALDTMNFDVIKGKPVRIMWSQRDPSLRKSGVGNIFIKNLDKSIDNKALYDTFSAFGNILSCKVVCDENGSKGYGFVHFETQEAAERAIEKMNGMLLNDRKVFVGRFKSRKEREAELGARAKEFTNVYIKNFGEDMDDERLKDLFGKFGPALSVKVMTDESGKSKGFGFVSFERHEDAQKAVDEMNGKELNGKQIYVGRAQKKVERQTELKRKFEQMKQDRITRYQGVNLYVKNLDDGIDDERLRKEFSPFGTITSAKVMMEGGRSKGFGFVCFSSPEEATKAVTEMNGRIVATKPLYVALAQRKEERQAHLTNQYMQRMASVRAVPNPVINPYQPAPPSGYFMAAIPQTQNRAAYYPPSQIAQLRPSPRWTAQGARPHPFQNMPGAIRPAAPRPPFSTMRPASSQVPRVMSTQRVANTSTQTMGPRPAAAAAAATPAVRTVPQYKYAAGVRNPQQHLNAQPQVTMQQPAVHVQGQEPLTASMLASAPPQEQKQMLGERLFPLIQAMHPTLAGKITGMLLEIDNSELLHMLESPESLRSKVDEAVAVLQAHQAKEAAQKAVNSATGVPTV
Induced myeloid leukemia cell differentiation protein Mcl-1, sequence (Q07820 whole entry): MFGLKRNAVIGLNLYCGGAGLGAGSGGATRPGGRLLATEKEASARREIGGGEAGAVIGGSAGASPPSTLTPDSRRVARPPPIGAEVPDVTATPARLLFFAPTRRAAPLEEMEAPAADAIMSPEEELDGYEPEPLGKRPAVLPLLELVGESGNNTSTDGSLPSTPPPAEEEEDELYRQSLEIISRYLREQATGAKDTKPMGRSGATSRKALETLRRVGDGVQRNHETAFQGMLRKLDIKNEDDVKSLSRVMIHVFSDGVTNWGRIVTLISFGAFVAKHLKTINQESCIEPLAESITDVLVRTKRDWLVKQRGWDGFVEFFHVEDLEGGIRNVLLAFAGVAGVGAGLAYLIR
Genome polyprotein, sequence (P29990 2492-3391 limits assumed): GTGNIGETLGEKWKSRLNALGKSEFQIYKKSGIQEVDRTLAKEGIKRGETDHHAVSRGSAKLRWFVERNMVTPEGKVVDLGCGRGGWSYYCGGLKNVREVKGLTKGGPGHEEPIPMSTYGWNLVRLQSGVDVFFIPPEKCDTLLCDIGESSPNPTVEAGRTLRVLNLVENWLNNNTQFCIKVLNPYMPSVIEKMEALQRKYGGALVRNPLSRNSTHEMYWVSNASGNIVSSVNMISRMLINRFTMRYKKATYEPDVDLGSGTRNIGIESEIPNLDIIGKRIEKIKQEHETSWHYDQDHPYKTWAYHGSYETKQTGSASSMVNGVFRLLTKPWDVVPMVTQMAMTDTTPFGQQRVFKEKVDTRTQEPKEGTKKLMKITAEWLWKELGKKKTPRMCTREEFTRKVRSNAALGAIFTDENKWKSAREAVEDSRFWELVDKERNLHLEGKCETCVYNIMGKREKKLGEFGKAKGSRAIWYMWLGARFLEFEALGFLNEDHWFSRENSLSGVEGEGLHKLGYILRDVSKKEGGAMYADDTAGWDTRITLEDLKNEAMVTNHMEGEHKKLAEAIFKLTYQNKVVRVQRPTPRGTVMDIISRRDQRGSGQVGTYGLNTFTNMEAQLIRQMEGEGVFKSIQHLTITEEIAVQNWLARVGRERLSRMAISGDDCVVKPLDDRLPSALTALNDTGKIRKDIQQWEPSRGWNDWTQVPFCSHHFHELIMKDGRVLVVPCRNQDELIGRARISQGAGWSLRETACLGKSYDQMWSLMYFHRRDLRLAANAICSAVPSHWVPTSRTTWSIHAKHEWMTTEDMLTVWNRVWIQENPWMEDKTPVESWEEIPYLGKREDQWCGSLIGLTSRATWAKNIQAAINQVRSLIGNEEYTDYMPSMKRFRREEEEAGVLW

## COc1cc(C(=O)Nc2ccc(NC(=O)c3ccco3)nc2)cc(OC)c1OC
[1]
  IC50: 21.4 µM (active)

## Cc1cc(N(CCO)CCO)ccc1C(c1ccc(N(CCO)CCO)cc1C)c1ccccc1Cl
[2]
  IC50: 2.71 µM (active)

## O=C(CCc1nc(O)c2ccccc2n1)Nc1ccc(F)cc1
[1]
  IC50: > 79 µM (inactive)

## O=c1c2c3nc4ccccc4nc3n(Cc3ccccc3)c2ncn1Cc1ccco1
[2]
  IC50: 6.14 µM (not active)

## COC(=O)c1ccc(/C=C/C(=O)c2ccc(OC)c(OC)c2)cc1
[3]
  EC50: 8.4 µM (active)
[4]
  EC50: 7.25 µM (active)

## Cc1nc(-n2ncc(C#N)c2N)c2c3c(sc2n1)CCC3
[3]
  EC50: 24.8 µM (active)
[4]
  EC50: 32 µM (active)

## O=C(/C=C/c1ccc([N+](=O)[O-])cc1)c1cccnc1
[3]
  EC50: 5.8 µM (active)
[4]
  EC50: 4.4 µM (active)

## Cc1ccc(S(=O)(=O)NCc2ccncc2)cc1C
[5]
  IC50: > 80 µM (inactive)
[6]
  AC50: 3.06 µM (active)
[7]
  AC50: 0.585 µM (active)
[8]
  AC50: 2.43 µM (active)

## COc1cc(-c2cc(C(=O)Nc3c(Cl)cc(Cl)cc3Cl)c3ccccc3n2)cc(OC)c1OC
[3]
  EC50: 26 µM (active)
[4]
  EC50: 44.6 µM (active)

## Cn1cc([N+](=O)[O-])c(C(=O)Nc2cc(Oc3cccnc3)cc([N+](=O)[O-])c2)n1
[3]
  EC50: 1.24 µM (active)
[9]
  IC50: 15.3 µM (not active)
[4]
  EC50: 1.02 µM (active)

## CCOC(=O)N1CCN(C(=O)C2CCCN(Cc3nc(-c4ccc(Cl)cc4)oc3C)C2)CC1 (configuration not stated)
[5]
  IC50: > 80 µM (inactive)

## O=C(NC1CCCCC1)c1nc[nH]c1C(=O)Nc1ccc([N+](=O)[O-])cc1
[3]
  EC50: 8.84 µM (active)
[4]
  EC50: 8.87 µM (active)

## Cc1ccc2nc(N3CC(=O)Nc4ccccc43)nc(-c3ccccc3)c2c1
[3]
  EC50: 11.5 µM (active)
[4]
  EC50: 10.4 µM (active)

## CCCc1cc(=O)oc2cc(OCc3ccc(C(=O)O)cc3)ccc12
[10]
  AC50: 3.75 µM (active)

## COc1cc(/C=C(/NC(C)=O)C(=O)O)cc(Cl)c1OCc1ccc(Br)cc1
[2]
  IC50: 3.47 µM (not active)

## CC1Cc2ccccc2N1C(=O)Cn1nc(C(=O)O)c2ccccc2c1=O (configuration not stated)
[1]
  IC50: 13.7 µM (active)

## CCc1nc(SCC(=O)c2ccccc2)c2ccccc2n1
[11]
  EC50: > 350 µM (not active)
[12]
  EC50: > 350 µM (not active)
[13]
  IC50: > 66 µM (inactive)
[14]
  IC50: > 66 µM (inactive)

## O=C1C(Cl)=C(N2CCCCC2)C(=O)N1c1ccccc1
[15]
  AC50: 8.22 µM (active)
[16]
  EC50: 3.22 µM (active)
[17]
  IC50: 66.9 µM (active)

## CCCCOc1ccc(C(=O)NCC(=O)N(C)Cc2nc(O)c3ccccc3n2)cc1
[1]
  IC50: > 79 µM (inactive)

## COCCNC(=O)COC(=O)c1ccc(OCC(=O)Nc2ccccc2OC)c(OC)c1
[1]
  IC50: > 79 µM (inactive)

## COc1cc(/C=N/NC(=O)c2cccnc2)ccc1OS(=O)(=O)c1ccc(F)cc1
[1]
  IC50: 7.92 µM (active)

## C=CCC1(C#N)C(=S)N=C2CC(C)(C)CC(O)=C2C1c1ccc(Br)cc1 (configuration not stated)
[3]
  EC50: 14.6 µM (active)
[4]
  EC50: 14.9 µM (active)

## CCOC(=O)c1c(C)[nH]c(C(=O)N/N=C/c2ccc(Br)cc2)c1C
[18]
  EC50: 0.327 µM (active)
[19]
  EC50: 35.1 µM (inconclusive)
[20]
  EC50: 0.733 µM (inconclusive)
[21]
  EC50: 0.387 µM (active)
[5]
  IC50: > 80 µM (inactive)

## CCC(=O)N1CC2(C1)CN(Cc1ccc(Cl)cc1)[C@@H](CO)c1[nH]c3cc(OC)ccc3c12
[22]
  AC50: 7.24 µM (active)

## CO[C@H]1CN(C)C(=O)c2cc(NC(=O)C3CC3)ccc2OC[C@H](C)N(Cc2cccc(F)c2)C[C@H]1C
[22]
  AC50: 6.05 µM (active)

## N#C[C@H]1[C@H](c2ccc(C#CC3CCCCC3)cc2)[C@@H](CO)N1S(=O)(=O)c1ccccc1
[22]
  AC50: 3.24 µM (active)

## CCCC#Cc1cnc2c(c1)C(=O)N([C@@H](C)CO)C[C@H](C)[C@H](CN(C)C(=O)Nc1cccc(F)c1)O2
[22]
  AC50: 8.83 µM (active)

## COc1ccc(-c2ccc([C@@H]3[C@H]4CNC[C@@H]3N4C(=O)Nc3ccc(C(F)(F)F)cc3)cc2)cc1
[22]
  AC50: 15 µM (active)

## CO[C@H]1CN(C)C(=O)c2cc(NC(=O)C3CC3)ccc2OC[C@@H](C)N(Cc2cc(F)ccc2F)C[C@H]1C
[22]
  AC50: 6.09 µM (active)

## O=C(O)CN1C(=O)/C(=C2\SC(=S)N(C(Cc3ccccc3)C(=O)O)C2=O)c2ccccc21 (configuration not stated)
[17]
  IC50: 42 µM (active)
[13]
  IC50: > 66 µM (inactive)
[14]
  IC50: > 66 µM (inactive)

## C[C@]12CC[C@H]3[C@@H](CC[C@]4(O)C[C@@H](O)CC[C@]34C=O)[C@@]1(O)CC[C@@H]2C1=CC(=O)OC1 [STROPHANTHIDIN]
[23]
  AC50: 0.582 µM (active)
[5]
  IC50: > 80 µM (inactive)
[24]
  CC50: 1.22 µM (active)
[25]
  AC50: 2.22 µM (active)
